This is an account of results in ChEMBL document CHEMBL1201862, “PubChem BioAssay data set” (2004).

Activity calls are given as the source filed them.

What is called IC90 is the concentration needed for an effect of 90%. Broadly, the AC50 is the concentration giving half of the maximal activity seen.

The nature of experiment [1]: growth inhibition of replicating M. tuberculosis, dose response, counter-screen, dry powder, IC90 (AID 651617). The class given is functional. The settings on record: Mycobacterium tuberculosis. Background: The purpose of a counterscreen is to sort out artefacts and off-target activity.
A short description of experiment [2]: inhibitors of non-replicating M. tuberculosis, dose response, luciferase, dry powder (AID 651620). The class given is functional. The settings on record: Mycobacterium tuberculosis.
The nature of experiment [3]: inhibitors of non-replicating M. tuberculosis, dose response, luciferase, dry powder (AID 651619). The class given is functional. The settings on record: Mycobacterium tuberculosis.
Experiment [4] deals with Oxysterols receptor LXR-beta (Homo sapiens, UniProt P55055). The class given is functional, cell-based.
Experiment [5] can be described thus: cells.
The target in a further experiment is Phospholipase D2 (Homo sapiens, UniProt O14939). The experiment can be described thus: PLD2 Cellular Concentration Response Study. The class given is functional.
The target of another experiment is Phospholipase D1 (Homo sapiens, UniProt Q13393). Kind of experiment: PLD1 Cellular Concentration Response Study. The class given is functional.
Experiment [6] addresses RNA-editing ligase 1, mitochondrial (Trypanosoma brucei brucei, UniProt P86926). Kind of experiment: TbREL1 ligase inhibitors, dose response, biochemical, fluorescence, Trypanosoma brucei (AID 1117295). The class given is functional.
Experiment [7] in a line: HepG2 cell cytotoxicity, dose response, cytotoxicity control, plate reader, dry powder samples (AID 1159569).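 Also: inhibitor potency with signal falling toward the positive control level.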 The class given is functional, cell-based.
A short description of experiment [8]: P. falciparum 3D7-ScDHODH growth inhibitors, dose response, SYBR Green, dry powder samples (AID 1159570).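 Also: parasite growth measured after 72 hours of compound exposure.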 The class given is functional, cell-based.
Experiment [9] is described as follows: P. falciparum Dd2 growth inhibitors, dose response, SYBR Green, cherry-picked samples (AID 1159567). The class given is functional, cell-based.
A short description of experiment [10]: P. falciparum Dd2 growth inhibitors, dose response, SYBR Green, dry powder samples (AID 1159566).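 Also: potency for growth inhibition with lower SYBR green DNA signal.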 The class given is functional, cell-based.
Experiment [11] is described as follows: P. falciparum ATP4 D1247Y mutant growth inhibitors, dose response, NITD609-resistant line, SYBR Green, dry powder (AID 1159571).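 Also: parasites synchronized at ring stage by sorbitol before testing.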 The class given is functional, cell-based.
A short description of experiment [12]: Late stage results for the probe development effort to identify inhibitors of Plasmodium falciparum gametocytes: Luminescence-based cell-based high throughput dose response assay to identify inhibitors of viability of late stage Plasmodium falciparum gametocytes. The class given is functional.
The nature of experiment [13]: HepG2 cell cytotoxicity, dose response, cytotoxicity control, plate reader, dry powder, set 6 (AID 743311). The class given is functional, cell-based.
The nature of experiment [14]: cells. The settings on record: HEK293.
Experiment [15] can be described thus: P. falciparum Dd2 growth inhibitors, dose response, SYBR Green, dry powder samples, set 9 (AID 1159568). The class given is functional, cell-based.
A short description of experiment [16]: HepG2 cell cytotoxicity, dose response, cytotoxicity control, cherry-picked samples (AID 1159577). The class given is functional, cell-based.
The target of experiment [17] is T1, Corticotropin-releasing factor receptor 2/Corticotropin-releasing factor-binding protein (Homo sapiens, UniProt P24387+Q13324).
T1 sequence (Q13324 whole entry): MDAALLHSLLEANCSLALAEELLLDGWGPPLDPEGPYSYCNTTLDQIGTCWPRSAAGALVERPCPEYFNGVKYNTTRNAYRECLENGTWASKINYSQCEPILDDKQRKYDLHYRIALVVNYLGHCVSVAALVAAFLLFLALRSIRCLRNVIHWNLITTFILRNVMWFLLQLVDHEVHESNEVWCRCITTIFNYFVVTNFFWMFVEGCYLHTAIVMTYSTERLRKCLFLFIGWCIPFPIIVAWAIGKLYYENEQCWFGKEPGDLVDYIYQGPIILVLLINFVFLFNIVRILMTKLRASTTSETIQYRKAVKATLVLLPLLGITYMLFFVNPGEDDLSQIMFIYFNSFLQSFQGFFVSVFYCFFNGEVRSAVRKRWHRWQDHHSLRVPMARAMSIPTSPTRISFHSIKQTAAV
T1 sequence (P24387 whole entry): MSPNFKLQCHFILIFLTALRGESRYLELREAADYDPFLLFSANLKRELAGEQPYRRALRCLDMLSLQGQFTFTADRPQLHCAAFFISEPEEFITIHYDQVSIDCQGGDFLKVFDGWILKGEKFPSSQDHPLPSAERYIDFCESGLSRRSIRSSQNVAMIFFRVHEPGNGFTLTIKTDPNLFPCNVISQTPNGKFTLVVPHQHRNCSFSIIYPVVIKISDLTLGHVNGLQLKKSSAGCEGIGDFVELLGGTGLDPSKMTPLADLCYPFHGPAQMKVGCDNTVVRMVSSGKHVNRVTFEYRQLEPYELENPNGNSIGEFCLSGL
The experiment can be described thus: Dose Response confirmation of uHTS hits for small molecule antagonists of the CRF-binding protein and CRF-R2 receptor complex. The class given is functional. Particulars: read-out: IC50_Mean.

Experiment [18] in a line: HeLa 2N DNA content increase, dose response, cell-based, IC50 (AID 1117349). The class given is functional.
Experiment [19] deals with T1, Corticotropin-releasing factor receptor 2/Corticotropin-releasing factor-binding protein. The experiment can be described thus: activators of CRF receptor 2 with binding protein – uHTS hits, confirmation (AID 602473). The class given is functional. Particulars: read-out: EC50_Mean.
Experiment [20] can be described thus: HeLa 4N DNA content increase, dose response, cell-based, IC50 (AID 1117351). The class given is functional.

Sequence of Phospholipase D2 (O14939 whole entry): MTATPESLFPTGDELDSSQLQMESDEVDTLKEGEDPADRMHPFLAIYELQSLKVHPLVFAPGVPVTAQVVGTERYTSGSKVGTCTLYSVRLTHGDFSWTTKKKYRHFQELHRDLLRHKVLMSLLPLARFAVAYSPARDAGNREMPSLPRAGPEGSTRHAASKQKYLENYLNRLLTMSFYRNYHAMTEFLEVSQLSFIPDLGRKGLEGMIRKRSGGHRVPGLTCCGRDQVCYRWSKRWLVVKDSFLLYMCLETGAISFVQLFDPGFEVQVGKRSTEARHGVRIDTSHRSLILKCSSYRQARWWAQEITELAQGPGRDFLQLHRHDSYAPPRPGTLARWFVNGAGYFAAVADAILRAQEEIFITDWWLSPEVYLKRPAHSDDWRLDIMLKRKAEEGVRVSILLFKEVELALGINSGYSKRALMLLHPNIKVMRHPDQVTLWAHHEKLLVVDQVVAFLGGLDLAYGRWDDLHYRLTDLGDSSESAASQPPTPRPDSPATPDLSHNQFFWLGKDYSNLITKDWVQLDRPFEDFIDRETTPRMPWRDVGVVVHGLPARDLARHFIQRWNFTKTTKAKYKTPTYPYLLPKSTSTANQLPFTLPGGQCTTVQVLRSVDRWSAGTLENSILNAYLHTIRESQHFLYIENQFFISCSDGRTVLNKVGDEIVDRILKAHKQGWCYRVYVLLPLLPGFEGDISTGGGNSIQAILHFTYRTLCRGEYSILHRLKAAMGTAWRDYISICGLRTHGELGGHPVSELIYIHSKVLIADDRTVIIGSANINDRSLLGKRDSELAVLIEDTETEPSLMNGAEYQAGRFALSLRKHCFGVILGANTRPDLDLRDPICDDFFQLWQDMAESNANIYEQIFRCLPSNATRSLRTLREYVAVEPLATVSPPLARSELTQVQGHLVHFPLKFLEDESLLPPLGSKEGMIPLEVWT
Sequence of RNA-editing ligase 1, mitochondrial (P86926 whole entry): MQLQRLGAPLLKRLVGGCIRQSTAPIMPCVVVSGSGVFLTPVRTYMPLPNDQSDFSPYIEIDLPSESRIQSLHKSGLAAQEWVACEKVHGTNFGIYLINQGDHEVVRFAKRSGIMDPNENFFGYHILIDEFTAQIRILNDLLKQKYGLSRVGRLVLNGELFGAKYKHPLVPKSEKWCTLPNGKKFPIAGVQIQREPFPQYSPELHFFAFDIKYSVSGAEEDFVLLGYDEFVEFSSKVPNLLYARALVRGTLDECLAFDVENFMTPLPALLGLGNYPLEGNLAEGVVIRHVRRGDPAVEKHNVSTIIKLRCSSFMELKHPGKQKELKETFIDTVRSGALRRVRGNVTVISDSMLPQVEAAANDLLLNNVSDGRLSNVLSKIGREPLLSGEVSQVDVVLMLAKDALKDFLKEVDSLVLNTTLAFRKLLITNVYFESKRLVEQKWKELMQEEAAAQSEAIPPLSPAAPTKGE
Sequence of Phospholipase D1 (Q13393 whole entry): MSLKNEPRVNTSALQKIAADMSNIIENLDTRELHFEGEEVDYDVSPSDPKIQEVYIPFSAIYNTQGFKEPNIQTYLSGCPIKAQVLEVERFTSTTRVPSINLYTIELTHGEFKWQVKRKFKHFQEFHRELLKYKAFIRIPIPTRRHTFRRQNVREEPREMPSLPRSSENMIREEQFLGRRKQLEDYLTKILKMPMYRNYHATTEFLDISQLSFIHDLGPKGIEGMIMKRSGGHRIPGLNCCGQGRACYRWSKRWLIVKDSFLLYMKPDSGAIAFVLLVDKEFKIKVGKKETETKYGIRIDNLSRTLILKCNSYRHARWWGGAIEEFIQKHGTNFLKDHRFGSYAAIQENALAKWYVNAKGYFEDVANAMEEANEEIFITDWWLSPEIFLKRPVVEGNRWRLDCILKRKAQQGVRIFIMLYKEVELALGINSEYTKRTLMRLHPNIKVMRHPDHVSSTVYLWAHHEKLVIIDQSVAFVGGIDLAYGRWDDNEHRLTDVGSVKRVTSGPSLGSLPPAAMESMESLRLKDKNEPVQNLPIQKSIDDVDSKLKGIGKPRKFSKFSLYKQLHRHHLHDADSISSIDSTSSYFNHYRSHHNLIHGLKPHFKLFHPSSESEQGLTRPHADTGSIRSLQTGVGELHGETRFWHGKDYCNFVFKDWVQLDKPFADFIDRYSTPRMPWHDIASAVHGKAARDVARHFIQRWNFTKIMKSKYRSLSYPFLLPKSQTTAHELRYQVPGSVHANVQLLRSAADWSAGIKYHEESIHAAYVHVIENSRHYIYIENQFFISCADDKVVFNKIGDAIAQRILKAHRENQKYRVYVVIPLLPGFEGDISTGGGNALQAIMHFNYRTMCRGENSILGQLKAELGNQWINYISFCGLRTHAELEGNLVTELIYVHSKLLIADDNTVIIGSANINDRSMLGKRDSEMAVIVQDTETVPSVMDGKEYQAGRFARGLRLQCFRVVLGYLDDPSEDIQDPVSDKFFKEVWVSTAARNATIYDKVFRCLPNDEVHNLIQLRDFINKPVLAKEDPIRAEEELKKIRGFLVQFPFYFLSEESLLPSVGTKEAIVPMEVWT
Sequence of Oxysterols receptor LXR-beta (P55055 whole entry): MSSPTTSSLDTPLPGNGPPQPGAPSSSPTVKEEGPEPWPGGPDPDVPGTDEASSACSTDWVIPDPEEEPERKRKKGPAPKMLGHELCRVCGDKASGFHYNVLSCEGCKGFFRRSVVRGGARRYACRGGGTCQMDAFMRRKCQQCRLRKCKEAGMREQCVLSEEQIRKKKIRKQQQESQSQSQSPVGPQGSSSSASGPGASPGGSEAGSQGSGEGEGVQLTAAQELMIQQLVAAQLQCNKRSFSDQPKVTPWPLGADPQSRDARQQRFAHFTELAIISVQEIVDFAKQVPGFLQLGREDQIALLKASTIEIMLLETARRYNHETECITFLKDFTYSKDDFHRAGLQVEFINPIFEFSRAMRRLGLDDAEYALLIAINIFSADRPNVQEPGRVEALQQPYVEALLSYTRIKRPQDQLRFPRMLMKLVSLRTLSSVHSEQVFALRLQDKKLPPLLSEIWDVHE

Take `[N-]=[N+]=NCCOCCNC(=O)CCCOc1ccc(CSc2nnc(-c3ccc(F)cc3)o2)nc1`: the IC90 is 250 µM (active) in experiment [1], 16 µM (active) in experiment [2] and 16 µM (active) in experiment [3].
`CCOC(=O)c1s/c(=N\C(=O)c2cccs2)n(C)c1C`: the EC50 (in experiment [4]; in the experiment “cells [5]”) was > 67.5 µM (inactive) in each case.
Regarding `O=C(NCCN1CCC2(CC1)C(=O)NCN2CC1CC1)c1ccc2ccccc2c1`, the values for the IC50 at Phospholipase D2 and at Phospholipase D1 were 2.05 µM (active) and 20 µM (active), respectively.
As for `C=CCNC1=NC(c2cccc(F)c2)C(C(=O)OC)=C(C)N1Cc1cccc(C(F)(F)F)c1` (stereo not drawn), in [6], the IC50 was > 96.6 µM (inactive).
`C/C=C/c1ccc([C@H]2[C@@H](CO)N(CC3CCCC3)[C@@H]2CNC(=O)NC(C)C)cc1`: the AC50 in experiment [7] is 25.4 µM (active); in experiment [8], 2.73 µM (active); in [9], 2.71 µM (active); in [10], 1.91 µM (active); in experiment [11], 2.41 µM (active).
For `O=C(Nc1nccs1)c1cn(-c2ccccc2)nc1-c1cccnc1`, the IC50 in [12] is > 74.4 µM (inactive).
Consider `Cc1ccc(C(C)C)c(OCCn2c(N)nc3ccccc32)c1`, for which the figures for the AC50 (in [13]; in the experiment “cells [14]”) were 4.5 µM (active) and 19.1 µM (active), respectively.
As to `C(=C\c1ccc([C@H]2[C@@H]3CN(Cc4nccs4)C[C@H]2N3)cc1)/c1ccccc1`, the AC50 in [15] was 11.2 µM (active).
`Cc1cccc(-c2ccc([C@@H]3[C@@H]4CN(C(=O)C5CCCC5)C[C@H]3N4)cc2)c1`: the AC50 in [16] is 10.7 µM (active); in experiment [9], 4.39 µM (active).
For the compound `Nc1nc(F)nc2c1ncn2[C@@H]1O[C@H](CO)[C@@H](O)[C@@H]1O` [FLUDARABINE], the IC50 in [17] was > 47.1 µM (inactive); in [18], > 10 µM (inactive); in experiment [20], > 10 µM (inactive). The EC50 in [19] is > 53 µM (inactive).
